This assay is described as follows: binding affinity was evaluated by measuring the ability to displace [3H]DPDPE radioligand binding from delta opioid receptor in guinea pig brain membranes.
The compound `CCCCOc1c(O)ccc2c1C13CCN(CC4CC4)C(C2)[C@]1(OC)CCC(=O)C3` (stereo not given in full) [3-butoxy-17-cyclopropylmethyl-4-hydroxy-10-methoxy-17-azatetracyclo[7.5.3.01,10.02,7]heptadeca-2(7),3,5-trien-13-one] had a Ki of 42 nM.
The result for `COc1c(O)ccc2c1C13CCN(CC4CC4)C(C2)[C@]1(O)CCC(=O)C3` (stereo not given in full) [17-cyclopropylmethyl-4,10-dihydroxy-3-methoxy-17-azatetracyclo[7.5.3.01,10.02,7]heptadeca-2(7),3,5-trien-13-one] reads 334 nM; that for `COc1c(O)ccc2c1C13CCN(CC4CC4)C(C2)[C@]1(OC)CCC(=O)C3` (stereo not given in full) [17-cyclopropylmethyl-4-hydroxy-3,10-dimethoxy-17-azatetracyclo[7.5.3.01,10.02,7]heptadeca-2(7),3,5-trien-13-one], 14 nM.
Take `CCO[C@@]12CCC(=O)CC13CCN(CC1CC1)C2Cc1ccc(O)c(OC)c13` (stereo not given in full) [17-cyclopropylmethyl-10-ethoxy-4-hydroxy-3-methoxy-17-azatetracyclo[7.5.3.01,10.02,7]heptadeca-2(7),3,5-trien-13-one]: affinity was put at a Ki of 21 nM.
Compound `COc1cccc2c1[C@]13CCN(CC4CC4)[C@H](C2)[C@]1(OC)CCC(=O)C3` [Naltrindole analogue] gave a Ki of 61 nM.

By Ki is commonly meant a measure of affinity in units of concentration, obtained from inhibition or displacement.

These data come from BindingDB's records for doi:10.1021/jm00016a010 (University of Innsbruck, 1995).
